Assay [1] has as its target T1, human HAQ isoform of STING (Homo sapiens, UniProt Q86WV6, G230A/H232R/R293Q/R71H).
T1 construct: host or cells: THP-1 STING Lucia ISG cells
The assay can be described thus: THP-1 STING Lucia ISG reporter cell line assay. The following applies: 24 h incubation, QUANTI-Luc luminescence; normalised to 40 μM ML RR-S2 CDA; read-out: EC50 THP-1 STING Lucia ISG cells. The class given is cell-based. The procedure: (§1) THP-1 STING Lucia ISG cells (InvivoGen #thpl-isg) were cultured in RPMI-1640 containing 2 mM L-glutamine, 25 mM HEPES, 100 μg/mL Normocin (InvivoGen) and 10% heat-inactivated FBS. Cells were seeded at a density of 7×10^5 cells/mL, maintained at 37° C./5% CO2, and passaged every 3-4 days. Selection pressure was maintained by the addition of 100 μg/mL Zeocin every second passage.
(§2) Assay conditions: cells were harvested and resuspended at a concentration of 5×10^5 cells/mL in fresh growth media. Of this cell preparation 20 μL per well was dispensed into 384 well cell culture plates (Greiner, #781098X) and incubated at 37° C./5% CO2 for 2 hours.
(§3) Concentration Response Curves (commonly 11 doses) were prepared by 2.5 fold serial dilution starting from 10 mM compound stock solution in DMSO. Compound dilutions were transferred into the cell culture plates using a pintool (0.1 μL transfer), control wells were matched for DMSO. Positive control wells received ML RR-S2 CDA (Med Chem Express HY12885B) in 5 μL of media to a final concentration of 40 μM. All other wells received additional 5 μL of media only to equalise volume. The plates were incubated for 24 h at 37° C./5% CO2.
(§4) For the detection step, QUANTI-Luc (InvivoGen #rep-qlc1) was prepared according to manufacturer's instruction and 10 μL were added per well to the culture plates. Plates were shaken for ten seconds on an orbital shaker and left in the dark at room temperature for two minutes, before luminescence was read on a Perkin Elmer Envision plate reader.
(§5) Data analysis: Luminescence raw data was normalised % activity relative to the signal of the positive control wells and negative control wells which were not treated with compound. The following formula was used to calculate normalised % activity from raw signals: % activity=(sample−negative)/(positive−negative)
(§6) The THP-1 STING Lucia ISG cell EC50 provides an assessment of activity at the human HAQ isoform of STING. For assessing compound activity against the WT human STING isoform, an equivalent method was conducted where the cells used were THP-1-Dual KI-hSTING-R232 (InvivoGen #thpd-r232).

In a further assay the target is T2, WT human STING isoform (Homo sapiens, UniProt Q86WV6, H232R).
T2 construct: host or cells: THP-1-Dual KI-hSTING-R232
T2 sequence (Q86WV6 whole entry H232R, canonical isoform): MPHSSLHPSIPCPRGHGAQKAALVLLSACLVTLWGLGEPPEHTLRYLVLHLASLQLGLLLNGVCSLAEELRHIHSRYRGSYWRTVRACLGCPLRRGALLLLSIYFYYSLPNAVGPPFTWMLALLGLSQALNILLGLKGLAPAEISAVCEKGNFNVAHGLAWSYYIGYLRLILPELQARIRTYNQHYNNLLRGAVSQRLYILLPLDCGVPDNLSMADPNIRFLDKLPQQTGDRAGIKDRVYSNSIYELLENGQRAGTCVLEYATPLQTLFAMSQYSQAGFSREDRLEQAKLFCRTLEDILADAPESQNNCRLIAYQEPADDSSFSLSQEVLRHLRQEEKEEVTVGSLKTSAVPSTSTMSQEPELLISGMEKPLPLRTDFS
Briefly: THP-1-Dual KI-hSTING-R232 reporter cell line assay. The following applies: 24 h incubation, QUANTI-Luc luminescence; normalised to 40 μM ML RR-S2 CDA; read-out: EC50 THP-1 Dual KI-hSTING-R232 cells. The assay is classed as cell-based. The procedure:
as §1, §2, §3, §4, §5, §6

The next assay has as its target T3, huSTING (WT) (Homo sapiens, UniProt Q86WV6, H232R).
T3 construct: made in house; host or cells: E. coli BL21 DE3
Briefly: Surface Plasmon Resonance (SPR) STING (WT). The assay is classed as binding. Particulars: biotinylated STING on streptavidin chip, 8° C.; 50% occupancy as surrogate KD. An excerpt: (§7) To determine binding affinities (50% occupancy as a surrogate Ko for the two binding events occurring) from dose-response experiments, binding responses at equilibrium were fit to a Hill equation, where the Hill coefficient was floated (52). For single-cycle kinetic experiments, sensorgrams were fit to a two-step kinetic model in which two analyte molecules bind sequentially (Biacore T200 or S200 Evaluation Software).

A further assay concerns the target T4, huSTING (HAQ) (Homo sapiens, UniProt Q86WV6, G230A/H232R/R293Q).
T4 construct: made in house; host or cells: E. coli BL21 DE3
Briefly: Surface Plasmon Resonance (SPR) STING (HAQ). The assay is classed as binding. The following applies: biotinylated STING on streptavidin chip, 8° C.; 50% occupancy as surrogate KD.
Text: as §7

Experimental findings from patent US12617780B2, “Benzothiophene, thienopyridine and thienopyrimidine derivatives for the modulation of sting” (CTXT PTY LTD, priority 2019, dated 2026) are described below.

pEC50, pKd: −log10 of the molar value.

As a reminder, the pEC50 is the negative decadic logarithm of the EC50, by convention in mol/L. What is called pKd is −log10 of the Kd, conventionally taken in molar units. A high value points to a low Kd.

T3 sequence (Q86WV6 with tags, fused parts or gaps H232R): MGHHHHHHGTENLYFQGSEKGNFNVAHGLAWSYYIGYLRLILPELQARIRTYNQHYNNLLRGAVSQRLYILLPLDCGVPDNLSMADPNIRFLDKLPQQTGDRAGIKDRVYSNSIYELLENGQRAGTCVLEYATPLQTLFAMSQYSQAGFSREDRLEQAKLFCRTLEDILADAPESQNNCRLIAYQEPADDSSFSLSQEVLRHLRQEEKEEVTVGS
T4 sequence (Q86WV6 with tags, fused parts or gaps G230A/H232R/R293Q): as the sequence (Q86WV6 with tags, fused parts or gaps H232R) above, with G100A, R163Q counted along it
T1 sequence (Q86WV6 whole entry R71H/G230A/H232R/R293Q, canonical isoform): as the sequence (Q86WV6 whole entry H232R, canonical isoform) above, with R71H, G230A, R293Q counted along it

In the case of `CCOC(=O)c1sc2cccc(Cl)c2c1-c1nc2cc(C(N)=O)cc(F)c2[nH]1` [Example 3, Ethyl 3-(5-carbamoyl-7-fluoro-1H-benzo[d]imidazol-2-yl)-4-chlorobenzo[b]thiophene-2-carboxylate], the pEC50 is 6.34 in assay [1] and 5.59 on WT human STING isoform.
Regarding `CCOC(=O)c1sc2c(F)ccc(Cl)c2c1-c1nc2c(OC)c(C(N)=O)cc(Cl)c2[nH]1` [Example 18, Ethyl 3-(5-carbamoyl-7-chloro-4-methoxy-1H-benzo[d]imidazol-2-yl)-4-chloro-7-fluorobenzo[b]thiophene-2-carboxylate], the results for the pEC50 (in assay [1]; on WT human STING isoform) were 5.74 and 5.64, respectively.
Consider `COc1c(C(N)=O)ccc2nc(-c3c(C(=O)O)sc4c(F)ccc(Br)c34)[nH]c12` [Example 11, 4-Bromo-3-(6-carbamoyl-7-methoxy-1H-benzo[d]imidazol-2-yl)-7-fluorobenzo[b]thiophene-2-carboxylic acid], for which the pEC50 in assay [1] was 6.19; at WT human STING isoform, 5.98. The values for the pKd at huSTING (WT) and on huSTING (HAQ) were 5.84 and 6.85, respectively.
As for `CCOC(=O)c1sc2c(F)ccc(Br)c2c1-c1nc2ccc(C(N)=O)c(OCC)c2[nH]1` [Example 14, Ethyl 4-bromo-3-(6-carbamoyl-7-ethoxy-1H-benzo[d]imidazol-2-yl)-7-fluorobenzo[b]thiophene-2-carboxylate], the pEC50 in assay [1] is 6.24; on WT human STING isoform it was 5.57.
For `CCOC(=O)c1sc2cccc(Cl)c2c1-c1nc2cc(C(N)=O)ccc2n1C` (single isomer, unassigned) [Example 5.1, Ethyl 3-(5-Carbamoyl-1-methyl-1H-benzo[d]imidazol-2-yl)-4-chlorobenzo[b]thiophene-2-carboxylate], the figures for the negative-log EC50 (pEC50) (in assay [1]; on WT human STING isoform) were 5.08 and 4.70, respectively.
With `COc1c(C(N)=O)ccc2[nH]c(-c3c(C(=O)O)sc4cccc(OC)c34)nc12` [Example 22, 3-(5-Carbamoyl-4-methoxy-1H-benzo[d]imidazol-2-yl)-4-methoxybenzo[b]thiophene-2-carboxylic acid], the negative logarithm of the EC50 (pEC50) in assay [1] is 5.03; at WT human STING isoform, 5.04.
Regarding `COc1c(C(N)=O)ccc2[nH]c(-c3c(C(=O)O)sc4c(Br)cnc(OC)c34)nc12` [Example 17, 7-Bromo-3-(5-carbamoyl-4-methoxy-1H-benzo[d]imidazol-2-yl)-4-methoxythieno[3,2-c]pyridine-2-carboxylic acid], the negative-log EC50 (pEC50) (in assay [1]; on WT human STING isoform) was under 4.40 throughout. The pKd on huSTING (WT) was 4.72; at huSTING (HAQ), 5.44.
With `NC(=O)c1ccc2[nH]c(-c3c(C(=O)O)sc4cccc(Cl)c34)nc2c1Cl` [Example 13, 3-(5-Carbamoyl-4-chloro-1H-benzo[d]imidazol-2-yl)-4-chlorobenzo[b]thiophene-2-carboxylic acid], the values for the pEC50 (in assay [1]; at WT human STING isoform) were 5.21 and 5.36, respectively. Moreover, at huSTING (HAQ), the pKd was 4.48.
As for `CCOC(=O)c1sc2c(F)ccc(Br)c2c1-c1nc2ccc(C(N)=O)c(OC)c2[nH]1` [Example 10, Ethyl 4-bromo-3-(6-carbamoyl-7-methoxy-1H-benzo[d]imidazol-2-yl)-7-fluorobenzo[b]thiophene-2-carboxylate], the values for the pEC50 (in assay [1]; on WT human STING isoform) were 7.37 and 6.92, respectively.
On to `CCOC(=O)c1sc2cccc(OC)c2c1-c1nc2c(OC)c(C(N)=O)ccc2[nH]1` [Example 19, Ethyl 3-(5-carbamoyl-4-methoxy-1H-benzo[d]imidazol-2-yl)-4-methoxybenzo[b]thiophene-2-carboxylate], for which the pEC50 was 7.55 in assay [1] and 7.09 at WT human STING isoform.
The like results for `CCOC(=O)c1sc2c(Br)cnc(OC)c2c1-c1nc2c(OC)c(C(N)=O)ccc2[nH]1` [Example 16, Ethyl 7-bromo-3-(5-carbamoyl-4-methoxy-1H-benzo[d]imidazol-2-yl)-4-methoxythieno[3,2-c]pyridine-2-carboxylate] were, in that order, 5.81 and 5.56.
As for `COc1c(C(N)=O)cc(F)c2[nH]c(-c3c(C(=O)O)sc4c(F)ccc(Cl)c34)nc12` [Example 21, 3-(5-Carbamoyl-7-fluoro-4-methoxy-1H-benzo[d]imidazol-2-yl)-4-chloro-7-fluorobenzo[b]thiophene-2-carboxylic acid], the pEC50 in assay [1] is 5.44; at WT human STING isoform, 5.31.
In the case of `NC(=O)c1ccc2[nH]c(-c3c(C(=O)O)sc4cccc(Cl)c34)nc2c1` [Example 2, 3-(5-Carbamoyl-1H-benzo[d]imidazol-2-yl)-4-chlorobenzo[b]thiophene-2-carboxylic acid], the pEC50 in assay [1] was 4.62; on WT human STING isoform, under 4.40. Moreover, the pKd on huSTING (HAQ) was 4.38.
With `CCOC(=O)c1sc2c(F)ccc(Cl)c2c1-c1nc2c(OC)c(C(N)=O)cc(F)c2[nH]1` [Example 23, Ethyl 3-(5-carbamoyl-7-fluoro-4-methoxy-1H-benzo[d]imidazol-2-yl)-4-chloro-7-fluorobenzo[b]thiophene-2-carboxylate], the negative logarithm of the EC50 (pEC50) in assay [1] was 6.94; on WT human STING isoform, 6.92.
Turning to `COc1c(C(N)=O)ccc2nc(-c3c(C(=O)O)sc4cccc(Cl)c34)[nH]c12` [Example 9, 3-(6-Carbamoyl-7-methoxy-1H-benzo[d]imidazol-2-yl)-4-chlorobenzo[b]thiophene-2-carboxylic acid], the pEC50 in assay [1] is 5.61; on WT human STING isoform, 5.33. In addition, the values for the negative logarithm of the Kd (pKd) on huSTING (WT) and on huSTING (HAQ) were 4.29 and 5.51, respectively.
For `CCOc1c(C(N)=O)ccc2nc(-c3c(C(=O)O)sc4c(F)ccc(Br)c34)[nH]c12` [Example 15, 4-Bromo-3-(6-carbamoyl-7-ethoxy-1H-benzo[d]imidazol-2-yl)-7-fluorobenzo[b]thiophene-2-carboxylic acid], the pEC50 (in assay [1]; on WT human STING isoform) was under 4.40 in each case. Moreover, the pKd at huSTING (HAQ) was 4.25.
As to `CCOC(=O)c1sc2c(F)ccc(Cl)c2c1-c1nc2c(OC)c(C(N)=O)ccc2[nH]1` [Example 20, Ethyl 3-(5-carbamoyl-4-methoxy-1H-benzo[d]imidazol-2-yl)-4-chloro-7-fluorobenzo[b]thiophene-2-carboxylate], the figures for the pEC50 (in assay [1]; at WT human STING isoform) were 6.91 and 6.88, respectively.
Take `CCOC(=O)c1sc2cccc(Cl)c2c1-c1nc2cc(C(N)=O)ccc2[nH]1` [Example 1, Ethyl 3-(5-carbamoyl-1H-benzo[d]imidazol-2-yl)-4-chlorobenzo[b]thiophene-2-carboxylate]: the negative logarithm of the EC50 (pEC50) in assay [1] is 6.24; at WT human STING isoform it was 5.15.
On to `CCOC(=O)c1sc2cccc(Cl)c2c1-c1nc2c(Cl)c(C(N)=O)ccc2[nH]1` [Example 12, Ethyl 3-(5-carbamoyl-4-chloro-1H-benzo[d]imidazol-2-yl)-4-chlorobenzo[b]thiophene-2-carboxylate], for which the negative-log EC50 (pEC50) in assay [1] was 7.92; on WT human STING isoform it was 7.62.
The matching figures for `CCOC(=O)c1sc2cccc(Cl)c2c1-c1nc2ccc(C(N)=O)c(OC)c2[nH]1` [Example 4, Ethyl 3-(6-carbamoyl-7-methoxy-1H-benzo[d]imidazol-2-yl)-4-chlorobenzo[b]thiophene-2-carboxylate]: 8.39 and 7.24.
The matching figures for `CCOC(=O)c1sc2c(F)ccc(Br)c2c1-c1nc2cc(C(N)=O)ccc2[nH]1` [Example 7, Ethyl 4-bromo-3-(5-carbamoyl-1H-benzo[d]imidazol-2-yl)-7-fluorobenzo[b]thiophene-2-carboxylate]: 6.36 and 5.67.
The matching figures for `CCOC(=O)c1sc2cccc(Cl)c2c1-c1nc2ccc(C(N)=O)cc2n1C` (single isomer, unassigned) [Example 5.2, Ethyl 3-(6-carbamoyl-1-methyl-1H-benzo[d]imidazol-2-yl)-4-chlorobenzo[b]thiophene-2-carboxylate]: 5.60 and 4.53.
